Activity calls are given as the source filed them. The calls are words filed in the database; no cut-off is given here.
Assays:
[1] = molecular target: T1, Cholinesterase (Homo sapiens, UniProt P06276)
[2] = molecular target: Acetylcholinesterase (Electrophorus electricus) (UniProt O42275); test: Inhibition of electric eel AChE at 100 uM using ATC iodide as substrate preincubated for 4.5 mins followed by substrate addition measured after 2.5 mins by Ellman's method relative to control
[3] = molecular target: T2, Cannabinoid receptor 1 (Homo sapiens, UniProt P21554); test: Displacement of [3H]-[…] from human CB1 receptor expressed in CHO cell membranes at 10 uM after 3 hrs by scintillation counting method relative to control
T2 sequence (P21554 whole entry): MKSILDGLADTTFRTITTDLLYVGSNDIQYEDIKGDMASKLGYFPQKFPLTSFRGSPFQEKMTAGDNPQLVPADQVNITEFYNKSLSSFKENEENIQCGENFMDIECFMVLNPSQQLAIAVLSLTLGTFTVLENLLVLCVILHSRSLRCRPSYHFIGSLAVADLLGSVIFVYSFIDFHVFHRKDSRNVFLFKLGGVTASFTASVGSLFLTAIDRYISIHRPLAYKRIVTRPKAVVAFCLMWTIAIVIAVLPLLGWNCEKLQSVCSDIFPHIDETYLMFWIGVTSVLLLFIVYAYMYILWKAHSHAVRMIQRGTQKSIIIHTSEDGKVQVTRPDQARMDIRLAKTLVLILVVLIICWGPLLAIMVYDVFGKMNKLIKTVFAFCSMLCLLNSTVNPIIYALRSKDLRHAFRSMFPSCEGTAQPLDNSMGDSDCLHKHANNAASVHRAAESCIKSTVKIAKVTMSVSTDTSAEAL

[4] = molecular target: T3, Cannabinoid receptor 2 (Homo sapiens, UniProt P34972); test: biochemical
T3 sequence (P34972 whole entry): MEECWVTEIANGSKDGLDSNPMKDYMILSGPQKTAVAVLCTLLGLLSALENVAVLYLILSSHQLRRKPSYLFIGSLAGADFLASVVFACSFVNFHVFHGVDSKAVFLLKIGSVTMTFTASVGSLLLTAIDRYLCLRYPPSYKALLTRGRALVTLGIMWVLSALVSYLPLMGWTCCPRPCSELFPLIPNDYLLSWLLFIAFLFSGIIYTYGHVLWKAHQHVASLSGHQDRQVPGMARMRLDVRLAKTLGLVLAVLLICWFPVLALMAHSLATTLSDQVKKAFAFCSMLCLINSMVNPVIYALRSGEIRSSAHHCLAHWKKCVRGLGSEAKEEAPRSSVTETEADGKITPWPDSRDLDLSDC
Description: Displacement of [3H]-CP55950 from human CB2 receptor expressed in HEK cell membranes after 3 hrs by scintillation counting method

[5] = molecular target: T4, Acetylcholinesterase (Homo sapiens, UniProt P22303); test: Inhibition of human erythrocyte AChE at 10 uM using ATC iodide as substrate preincubated for 4.5 mins followed by substrate addition measured after 2.5 mins by Ellman's method relative to control
T4 sequence (P22303 whole entry): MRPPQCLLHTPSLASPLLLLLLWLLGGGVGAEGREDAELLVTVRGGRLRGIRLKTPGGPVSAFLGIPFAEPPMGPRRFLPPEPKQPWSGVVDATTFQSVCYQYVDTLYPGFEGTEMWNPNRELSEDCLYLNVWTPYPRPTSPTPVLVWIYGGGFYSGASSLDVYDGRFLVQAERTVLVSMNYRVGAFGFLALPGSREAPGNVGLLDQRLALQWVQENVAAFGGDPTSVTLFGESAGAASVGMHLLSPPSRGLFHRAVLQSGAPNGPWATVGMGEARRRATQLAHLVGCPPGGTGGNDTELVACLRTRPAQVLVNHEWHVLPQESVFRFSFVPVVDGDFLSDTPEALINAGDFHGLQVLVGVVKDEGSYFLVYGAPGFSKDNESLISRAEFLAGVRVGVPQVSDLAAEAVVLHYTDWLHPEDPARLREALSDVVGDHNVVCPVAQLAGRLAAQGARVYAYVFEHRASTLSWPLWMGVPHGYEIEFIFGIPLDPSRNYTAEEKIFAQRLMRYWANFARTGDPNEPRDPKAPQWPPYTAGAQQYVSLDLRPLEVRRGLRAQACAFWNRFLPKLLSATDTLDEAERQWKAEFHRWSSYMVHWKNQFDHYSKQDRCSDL

[6] = molecular target: T1, Cholinesterase; test: Inhibition of human BChE at 10 uM using BTC iodide as substrate preincubated for 4.5 mins followed by substrate addition measured after 2.5 mins by Ellman's method relative to control
[7] = molecular target: Acetylcholinesterase (Electrophorus electricus) (UniProt O42275); test: Inhibition of electric eel AChE at 10 uM using ATC iodide as substrate preincubated for 4.5 mins followed by substrate addition measured after 2.5 mins by Ellman's method relative to control
[8] = tested on: U-266; test: Cytotoxicity against human U266 cells assessed as decrease in cell viability after 72 hrs by MTT assay; assay type: cell-based; details: U-266, 72 h
[9] = molecular target: T1, Cholinesterase; test: Inhibition of human BChE at 100 uM using BTC iodide as substrate preincubated for 4.5 mins followed by substrate addition measured after 2.5 mins by Ellman's method relative to control
[10] = molecular target: T1, Cholinesterase; test: Inhibition of human BChE at 50 uM using BTC iodide as substrate preincubated for 4.5 mins followed by substrate addition measured after 2.5 mins by Ellman's method relative to control
[11] = molecular target: Acetylcholinesterase (Electrophorus electricus) (UniProt O42275); test: Inhibition of electric eel AChE at 50 uM using ATC iodide as substrate preincubated for 4.5 mins followed by substrate addition measured after 2.5 mins by Ellman's method relative to control
[12] = molecular target: T2, Cannabinoid receptor 1; test: biochemical; assay type: cell-based
Description: Displacement of [3H]-CP55950 from human CB1 receptor expressed in CHO cell membranes after 3 hrs by scintillation counting method

[13] = molecular target: T4, Acetylcholinesterase; test: Inhibition of human erythrocyte AChE at 100 uM using ATC iodide as substrate preincubated for 4.5 mins followed by substrate addition measured after 2.5 mins by Ellman's method relative to control
[14] = molecular target: T3, Cannabinoid receptor 2; test: Agonist activity at CB2 receptor in human U266 cells assessed as decrease in AM630-induced MIF mRNA expression at 50 uM after 2 hrs by qRT-PCR method; assay type: cell-based
[15] = tested on: Mus musculus; test: Pro-cognitive activity in Swiss mouse assessed as prevention of amyloid beta (25 to 35)-induced increase in escape latency at 1 to 3 mg/kg, ip administered for 7 days measured on day 10 by passive avoidance test; assay type: functional, organism-based
[16] = molecular target: T3, Cannabinoid receptor 2; test: Agonist activity at CB2 receptor in human U266 cells assessed as decrease in AM630-induced STAT3 mRNA expression at 50 uM after 2 hrs by qRT-PCR method; assay type: cell-based
[17] = molecular target: T3, Cannabinoid receptor 2; test: Agonist activity at CB2 receptor in human U266 cells assessed as decrease in cAMP accumulation at 50 uM after 2 hrs by ELISA; assay type: functional, cell-based
[18] = tested on: Mus musculus; test: Toxicity in Swiss mouse assessed as body weight gain per day at 0.3 to 3 mg/kg, ip administered for 7 days measured during compound dosing; assay type: organism-based; details: in vivo, 168 h
[19] = molecular target: Cholinesterase (Equus caballus, UniProt P81908); test: Inhibition of equine BChE using BTC iodide as substrate preincubated for 4.5 mins followed by substrate addition measured after 2.5 mins by Ellman's method
Chain of Cholinesterase (Equus caballus, UniProt P81908) (P81908 whole entry): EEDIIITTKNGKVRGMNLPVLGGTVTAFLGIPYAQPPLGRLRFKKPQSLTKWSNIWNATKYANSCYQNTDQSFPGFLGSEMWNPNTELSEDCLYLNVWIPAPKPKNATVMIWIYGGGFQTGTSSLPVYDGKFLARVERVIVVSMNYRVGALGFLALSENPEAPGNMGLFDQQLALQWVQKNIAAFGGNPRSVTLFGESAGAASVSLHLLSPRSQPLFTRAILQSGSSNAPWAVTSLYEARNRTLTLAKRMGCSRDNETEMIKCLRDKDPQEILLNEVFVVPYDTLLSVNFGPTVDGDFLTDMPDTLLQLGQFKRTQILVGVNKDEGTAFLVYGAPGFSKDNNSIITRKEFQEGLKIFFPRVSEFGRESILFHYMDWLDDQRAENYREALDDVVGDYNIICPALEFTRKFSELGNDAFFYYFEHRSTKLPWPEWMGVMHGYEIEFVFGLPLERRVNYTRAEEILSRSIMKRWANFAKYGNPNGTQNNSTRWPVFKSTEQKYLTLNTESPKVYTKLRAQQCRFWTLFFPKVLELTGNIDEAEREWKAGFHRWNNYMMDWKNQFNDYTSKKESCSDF

[20] = molecular target: T3, Cannabinoid receptor 2; test: Agonist activity at CB2 receptor in human U266 cells assessed as decrease in STAT3 mRNA expression at 50 uM after 2 hrs by qRT-PCR method; assay type: cell-based
[21] = molecular target: T3, Cannabinoid receptor 2; test: Agonist activity at CB2 receptor in human U266 cells assessed as decrease in MIF mRNA expression at 50 uM after 2 hrs by qRT-PCR method; assay type: cell-based
[22] = molecular target: T3, Cannabinoid receptor 2; test: Agonist activity at CB2 receptor in human U266 cells assessed as decrease in AM630-induced cAMP accumulation at 50 uM after 2 hrs by ELISA; assay type: functional, cell-based
[23] = tested on: Mus musculus; test: Pro-cognitive activity in amyloid beta (25 to 35)-treated Swiss mouse assessed as increase in locomotion by measuring number of arms entered during session at 3 mg/kg, ip administered for 7 days measured on day 8 by Y-maze test; assay type: functional, organism-based
[24] = molecular target: T1, Cholinesterase; test: Inhibition of human BChE at 25 uM using BTC iodide as substrate preincubated for 4.5 mins followed by substrate addition measured after 2.5 mins by Ellman's method relative to control
[25] = molecular target: Acetylcholinesterase (Electrophorus electricus) (UniProt O42275); test: Inhibition of electric eel AChE at 25 uM using ATC iodide as substrate preincubated for 4.5 mins followed by substrate addition measured after 2.5 mins by Ellman's method relative to control
[26] = tested on: Mus musculus; test: Toxicity in Swiss mouse assessed as body weight gain per day at 0.3 mg/kg, ip administered for 7 days measured during compound dosing; assay type: organism-based; details: in vivo, 168 h
[27] = tested on: Mus musculus; test: Toxicity in Swiss mouse assessed as body weight gain per day at 3 mg/kg, ip administered for 7 days measured during compound dosing; assay type: organism-based; details: in vivo, 168 h
[28] = tested on: Mus musculus; test: Toxicity in Swiss mouse assessed as body weight gain per day at 1 mg/kg, ip administered for 7 days measured during compound dosing; assay type: organism-based; details: in vivo, 168 h
[29] = tested on: Mus musculus; test: Toxicity in Swiss mouse assessed as changes in fur aspects at 0.3 to 3 mg/kg, ip administered for 7 days measured during compound dosing; assay type: organism-based; details: in vivo, 168 h
[30] = tested on: Mus musculus; test: Pro-cognitive activity in ip dosed Swiss mouse assessed as prevention of amyloid beta (25 to 35)-induced step through latency deficit administered for 7 days measured on day 10 by passive avoidance test; assay type: functional, organism-based
[31] = tested on: Mus musculus; test: Toxicity in Swiss mouse assessed as behavioral alteration at 0.3 to 3 mg/kg, ip administered for 7 days measured during compound dosing; assay type: organism-based; details: in vivo, 168 h
[32] = tested on: Mus musculus; test: Toxicity in Swiss mouse assessed as prostration at 0.3 to 3 mg/kg, ip administered for 7 days measured during compound dosing; assay type: organism-based; details: in vivo, 168 h
[33] = tested on: Mus musculus; test: Toxicity in Swiss mouse assessed as abdominal pain at 0.3 to 3 mg/kg, ip administered for 7 days measured during compound dosing; assay type: organism-based; details: in vivo, 168 h
[34] = tested on: Mus musculus; test: Toxicity in Swiss mouse assessed as body weight loss at 0.3 to 3 mg/kg, ip administered for 7 days measured during compound dosing; assay type: organism-based; details: in vivo, 168 h
[35] = tested on: Mus musculus; test: Pro-cognitive activity in Swiss mouse assessed as prevention of amyloid beta (25 to 35)-induced step through latency deficit at 3 mg/kg, ip administered for 7 days measured on day 10 by passive avoidance test; assay type: functional, organism-based
[36] = molecular target: T3, Cannabinoid receptor 2; details: 10 uM
Description: Displacement of [3H]-CP55950 from human CB2 receptor expressed in HEK cell membranes at 10 uM after 3 hrs by scintillation counting method relative to control

[37] = molecular target: T4, Acetylcholinesterase
[38] = molecular target: Acetylcholinesterase (Electrophorus electricus, UniProt O42275); test: Inhibition of electric eel AChE using ATC iodide as substrate preincubated for 4.5 mins followed by substrate addition measured after 2.5 mins by Ellman's method
Chain of Acetylcholinesterase (Electrophorus electricus, UniProt O42275) (O42275 whole entry): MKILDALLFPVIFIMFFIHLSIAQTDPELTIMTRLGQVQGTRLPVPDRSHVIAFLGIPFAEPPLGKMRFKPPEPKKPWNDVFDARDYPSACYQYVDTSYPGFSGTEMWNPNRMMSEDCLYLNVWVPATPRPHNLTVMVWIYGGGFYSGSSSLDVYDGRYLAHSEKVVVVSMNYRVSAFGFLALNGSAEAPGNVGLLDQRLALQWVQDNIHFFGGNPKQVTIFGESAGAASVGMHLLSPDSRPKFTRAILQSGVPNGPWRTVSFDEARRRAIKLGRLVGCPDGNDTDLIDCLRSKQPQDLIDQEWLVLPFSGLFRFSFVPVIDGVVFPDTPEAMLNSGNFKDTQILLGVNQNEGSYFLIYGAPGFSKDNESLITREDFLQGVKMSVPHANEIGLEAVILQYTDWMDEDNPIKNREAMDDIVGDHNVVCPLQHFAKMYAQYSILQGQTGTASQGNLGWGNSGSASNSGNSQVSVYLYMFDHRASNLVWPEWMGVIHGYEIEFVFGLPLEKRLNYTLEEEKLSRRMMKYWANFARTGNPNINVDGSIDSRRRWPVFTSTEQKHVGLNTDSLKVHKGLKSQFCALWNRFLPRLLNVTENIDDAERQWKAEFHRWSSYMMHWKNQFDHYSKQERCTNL

Chain of Acetylcholinesterase (Electrophorus electricus) (O42275 24-633 limits assumed): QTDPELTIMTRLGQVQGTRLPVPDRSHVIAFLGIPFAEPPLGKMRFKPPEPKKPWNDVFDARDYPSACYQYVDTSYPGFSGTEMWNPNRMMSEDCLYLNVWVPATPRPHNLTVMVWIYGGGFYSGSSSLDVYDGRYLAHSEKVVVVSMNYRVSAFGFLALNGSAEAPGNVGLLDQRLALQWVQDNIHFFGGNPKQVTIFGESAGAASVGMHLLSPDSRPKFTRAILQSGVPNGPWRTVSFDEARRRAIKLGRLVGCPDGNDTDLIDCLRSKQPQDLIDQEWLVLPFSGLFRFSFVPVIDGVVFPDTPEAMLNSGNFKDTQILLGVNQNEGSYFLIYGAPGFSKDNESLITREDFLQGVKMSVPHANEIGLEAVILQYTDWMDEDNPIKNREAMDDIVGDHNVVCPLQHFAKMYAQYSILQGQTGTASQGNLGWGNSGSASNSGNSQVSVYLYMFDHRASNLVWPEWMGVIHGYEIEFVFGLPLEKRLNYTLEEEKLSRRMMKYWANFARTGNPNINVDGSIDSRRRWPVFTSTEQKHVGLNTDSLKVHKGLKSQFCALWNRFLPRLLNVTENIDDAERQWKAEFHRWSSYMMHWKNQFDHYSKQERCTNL
T1 sequence (P06276 whole entry): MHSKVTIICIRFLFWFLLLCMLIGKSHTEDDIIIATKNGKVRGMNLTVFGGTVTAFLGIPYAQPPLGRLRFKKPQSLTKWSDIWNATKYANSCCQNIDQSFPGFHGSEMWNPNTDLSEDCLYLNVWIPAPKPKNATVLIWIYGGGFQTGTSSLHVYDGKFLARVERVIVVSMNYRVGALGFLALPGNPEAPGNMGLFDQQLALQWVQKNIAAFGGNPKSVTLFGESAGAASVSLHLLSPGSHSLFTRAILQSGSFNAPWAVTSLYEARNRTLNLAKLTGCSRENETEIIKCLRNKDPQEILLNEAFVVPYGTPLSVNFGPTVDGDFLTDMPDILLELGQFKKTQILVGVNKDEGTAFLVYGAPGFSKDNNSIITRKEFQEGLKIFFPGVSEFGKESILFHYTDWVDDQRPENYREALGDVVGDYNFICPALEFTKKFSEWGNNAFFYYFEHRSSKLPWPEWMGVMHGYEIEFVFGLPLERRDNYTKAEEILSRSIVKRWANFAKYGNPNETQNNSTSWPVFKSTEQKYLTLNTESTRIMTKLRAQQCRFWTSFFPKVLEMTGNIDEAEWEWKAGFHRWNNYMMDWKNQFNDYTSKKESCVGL

Row | Structure (SMILES) | IC50 [1] [µM] | inhibition [2] [%] | inhibition [3] [%] | IC50 [4] [µM] | Ki [4] [µM] | inhibition [5] [%] | inhibition [6] [%] | inhibition [7] [%] | IC50 [8] [µM] | further results
1 | CCOc1ccc(Nc2nc3cc(C(=O)N(CC)CC)ccc3n2CCN2CCCCC2)cc1 | 53.4 | 18 | 17 | 12.6 | 10.4 | 3 | – | – | – | –
2 | CCOc1ccc(Cc2nc3cc(NC(=O)c4ccccc4)ccc3n2CCC(C)C)cc1 | – | – | 36 | 3.98 | 4.3 | – | 25 | 2 | – | –
3 | CCOc1ccc(Cc2nc3cc(C(=O)NC45CC6CC(CC(C6)C4)C5)ccc3n2CCC(C)C)cc1 | – | – | 31 | 5.01 | 4.7 | – | 1 | 5 | > 40 | –
4 | CCOc1ccc(Cc2nc3cc(C(=O)Nc4ccccc4)ccc3n2CCC(C)C)cc1 | 1.2 | – | 18 | 15.8 | 14.4 | 5 | – | 2 | > 40 | –
5 | CCOc1ccc(Cc2nc3cc(N)ccc3n2CCC(C)C)cc1 | – | 15 | 27 | 20 | 21 | – | – | – | – | inhibition [9]: 39%
6 | CCOc1ccc(CNc2nc3cc(C(=O)N(CC)CC)ccc3n2CCC(C)C)cc1 | – | – | 21 | 0.398 | 0.353 | – | – | – | – | inhibition [10]: 4%; inhibition [11]: 7%
7 | CCOc1ccc(Cc2nc3cc(C(=O)N4CCCCC4)ccc3n2CCC(C)C)cc1 | 5.7 | – | – | 0.398 | 0.384 | 2 | – | 8 | – | IC50 [12]: 15.8 µM; Ki [12]: 17 µM
8 | CCOc1ccc(Cc2nc3cc(C(=O)N(CC)CC)ccc3n2CCC(C)C)cc1 | – | 28 | 24 | – | – | – | 2 | – | – | inhibition [13]: 6%; Activity [14]: Active; Activity [15]: Active; Activity [16]: Active; Activity [17]: Active; Activity [18]: 0.3 g; IC50 [19]: 9.7 µM; Activity [20]: Active; Activity [21]: Active; Activity [22]: Active; Activity [23]: Active
9 | CCN(CC)C(=O)c1ccc2c(c1)nc(Nc1ccc(Oc3ccccc3)cc1)n2CCC(C)C | – | 2 | 45 | 0.501 | 0.426 | 3 | 0 | – | > 40 | Activity [14]: Active; Activity [16]: Active; Activity [17]: Active; IC50 [19]: 3.7 µM; Activity [20]: Active; Activity [21]: Active; Activity [22]: Active
10 | CCCCCCNC(=O)c1ccc2c(c1)nc(Cc1ccc(OCC)cc1)n2CCC(C)C | 5.2 | – | 39 | 2 | 1.9 | 6 | – | 8 | > 40 | –
11 | CCN(CC)C(=O)c1ccc2c(c1)nc(Nc1ccc(Oc3ccccc3)cc1)n2CCN1CCCCC1 | – | – | 37 | 7.94 | 8.9 | – | – | – | – | inhibition [24]: 4%; inhibition [25]: 3%
12 | CCOc1ccc(Cc2nc3cc(C(=O)NCCC(C)C)ccc3n2CCC(C)C)cc1 | – | – | 37 | – | – | 11 | – | – | > 40 | Activity [26]: 0.2 g; Activity [27]: 0 g; Activity [28]: 0.1 g; Activity [15]: Active; Activity [29]: Non-Toxic; Activity [30]: Dose-dependent effect; Activity [31]: Non-Toxic; inhibition [25]: 3%; Activity [32]: Non-Toxic; Activity [33]: Non-Toxic; Activity [34]: Non-Toxic
13 | CCOc1ccc(Nc2nc3cc(C(=O)N(CC)CC)ccc3n2CCC(C)C)cc1 | – | 4 | 13 | 2 | 1.9 | 13 | 3 | – | > 40 | Activity [14]: Active; Activity [15]: Active; Activity [16]: Active; Activity [17]: Active; Activity [18]: 0.3 g; Activity [35]: Active; IC50 [19]: 0.7 µM; Activity [20]: Active; Activity [21]: Active; Activity [22]: Active; Activity [23]: Active
14 | Cc1c(C(=O)NN2CCCCC2)nn(-c2ccc(Cl)cc2Cl)c1-c1ccc(Cl)cc1 | – | – | – | – | – | – | – | – | – | inhibition [36]: 4%
15 | CCOc1ccc(Cc2nc3cc(C(=O)N(CC)CC)ccc3n2CCCCN2CCCCC2)cc1 | 2.7 | – | 2 | 5.01 | 4.8 | – | – | – | > 40 | IC50 [37]: 60.1 µM; IC50 [38]: 20.5 µM
16 | CCOc1ccc(Cc2nc3cc(C(=O)N(CC)CC)ccc3n2CCCCCCN2CCCCC2)cc1 | 8.2 | – | 4 | 1.26 | 1 | – | – | – | – | IC50 [37]: 20 µM; IC50 [38]: 11.9 µM
